From patent US20230091225A1, “Bifunctional chimeric heterocyclic compounds for targeted degradation of androgen receptors and use thereof” (HINOVA PHARMACEUTICALS INC., priority 2019, published 2023)
Like-named read-outs stand apart in the source and are kept apart here.

Target: T1, androgen receptor (AR) (Homo sapiens, UniProt P10275)
T1 sequence (P10275 1-920): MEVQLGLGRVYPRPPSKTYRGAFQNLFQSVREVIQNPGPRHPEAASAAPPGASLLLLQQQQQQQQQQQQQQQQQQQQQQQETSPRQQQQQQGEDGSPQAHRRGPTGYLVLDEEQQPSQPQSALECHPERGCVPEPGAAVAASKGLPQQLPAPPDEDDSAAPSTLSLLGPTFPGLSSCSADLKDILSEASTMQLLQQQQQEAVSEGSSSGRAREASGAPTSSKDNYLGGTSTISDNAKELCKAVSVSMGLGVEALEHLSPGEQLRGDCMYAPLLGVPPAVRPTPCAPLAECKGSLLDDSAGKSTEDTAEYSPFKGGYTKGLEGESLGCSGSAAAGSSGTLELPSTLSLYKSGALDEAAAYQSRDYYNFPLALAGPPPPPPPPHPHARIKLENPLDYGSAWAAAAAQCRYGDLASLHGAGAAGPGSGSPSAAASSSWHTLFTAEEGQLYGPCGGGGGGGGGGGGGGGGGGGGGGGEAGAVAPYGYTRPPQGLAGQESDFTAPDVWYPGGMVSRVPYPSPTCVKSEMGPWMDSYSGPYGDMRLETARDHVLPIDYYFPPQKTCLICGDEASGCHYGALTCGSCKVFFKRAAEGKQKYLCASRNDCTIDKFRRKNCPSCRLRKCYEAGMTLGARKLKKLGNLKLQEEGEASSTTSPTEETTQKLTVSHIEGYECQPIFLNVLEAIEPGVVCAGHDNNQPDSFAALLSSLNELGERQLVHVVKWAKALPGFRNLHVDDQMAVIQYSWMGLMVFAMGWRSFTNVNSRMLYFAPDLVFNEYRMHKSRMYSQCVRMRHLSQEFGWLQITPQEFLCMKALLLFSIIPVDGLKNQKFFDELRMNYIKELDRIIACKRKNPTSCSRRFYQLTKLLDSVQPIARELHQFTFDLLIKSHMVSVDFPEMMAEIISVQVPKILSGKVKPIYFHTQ
Assay: Degradation of androgen receptor (AR) protein in VCaP cells by ELISA
Assay type: cell-based
Details: for Dmax: VCaP

[1] = AR degradation, VCaP cells, 16 h, ELISA, Table 3-1
[2] = AR degradation, VCaP cells, 16 h, ELISA, Table 3-1, read-out: DC50
[3] = AR degradation, VCaP cells, 16 h, ELISA, Table 3-1, read-out: Dmax (%)
[4] = AR degradation, VCaP cells, 16 h, ELISA, Table 3-2, read-out: DC50
[5] = AR degradation, VCaP cells, 16 h, ELISA, Table 3-2, read-out: Dmax (%)

| SMILES | DC50 [2] [nM] | Dmax [3] [%] | also measured |
| --- | --- | --- | --- |
| Cc1cc(O[C@H]2CC[C@H](NC(=O)c3ccc(N4CCC(CN5CCC6(CC5)CN(c5ccc7c(c5)C(=O)N(C5CCC(=O)NC5=O)C7=O)C6)CC4)nn3)CC2)ccc1C#N (stereo partly drawn) [Compound 275] |  |  | DC50: < 10 nM; Dmax: > 80% |
| CC1(C)[C@H](Oc2ccc(C#N)c(Cl)c2)C(C)(C)[C@H]1N1Cc2nc(C#CC3CCC(N4CC5CN(c6cc7c(cc6F)C(=O)N(C6CCC(=O)NC6=O)C7=O)CC5C4)CC3)ccc2C1=O (stereo partly drawn) [Compound 340] | < 10 | > 80 |  |
| N#Cc1ccc(O[C@H]2CC[C@H](NC(=O)c3ccc(N4CCC5(CCN(CC6CCN(c7ccc8c(c7)C(=O)N(C7CCC(=O)NC7=O)C8=O)CC6)CC5)CC4)nn3)CC2)cc1Cl (stereo partly drawn) [Compound 262, N-((1r,4r)-4-(3-chloro-4-cyanophenoxy)cyclohexyl)-6-(9-((1-(2-(2,6-dioxopiperidin-3-yl)-1,3-dioxoisoindolin-5-yl)piperidine-4-yl)methyl)-3,9-diazaspiro[5.5]undecan-3-yl)pyridazine-3-formamide] | < 10 | > 80 |  |
| N#Cc1ccc(O[C@H]2CC[C@H](NC(=O)c3ccc(N4CCC(N5CC6(CCN(c7cc8c(cc7F)C(=O)N(C7CCC(=O)NC7=O)C8=O)CC6)C5)CC4)nc3)CC2)cc1Cl (stereo partly drawn) [Compound 77, N-((1r,4r)-4-(3-chloro-4-cyanophenoxy)cyclohexyl)-6-(4-(7-(2-(2,6-dioxopiperidin-3-yl)-6-fluoro-1,3-dioxoisoindolin-5-yl)-2,7-diazaspiro[3.5]nonan-2-yl)piperidin-1-yl)nicotinamide] | < 10 | > 80 |  |
| CC1(C)[C@H](Oc2ccc(C#N)c(Cl)c2)C(C)(C)[C@H]1N1Cc2nc(C#CC3CCC(N4CC5(CN(c6ccc7c(c6)C(=O)N([C@@H]6CCC(=O)NC6=O)C7=O)C5)C4)CC3)ccc2C1=O (stereo partly drawn) [Compound 351, 2-Chloro-4-((1r,3r)-3-(2-((4-(6-(2-(2,6-dioxopiperidin-3-yl)-1,3-dioxoisoindolin-5-yl)-2,6-diazaspiro[3.3]heptane-2-yl)cyclohexyl)ethynyl)-5-oxo-5,7-dihydro-6H-pyrrolo[3,4-b]pyridin-6-yl)-2,2,4,4-tetramethylcyclobutoxy) benzonitrile] |  |  | Dmax (%): ++++ (key: A: >80%; B: 79%-50%; C: 49%-25%; D: <25%); DC50 (read-out: DC50): < 10 nM |
| N#Cc1ccc(O[C@H]2CC[C@H](NC(=O)c3cnc(N4CC5(CCN(CC6CCN(c7ccc8c(c7)C(=O)N(C7CCC(=O)NC7=O)C8=O)CC6)CC5)C4)cn3)CC2)cc1Cl (stereo partly drawn) [Compound 283, N-((1r,4r)-4-(3-chloro-4-cyanophenoxy)cyclohexyl)-6-(7-((1-(2-(2,6-dioxopiperidin-3-yl)-1,3-dioxoisoindolin-5-yl)piperidine-4-yl)methyl)-2,7-diazaspiro[3.5]nonan-2-yl)pyrazine-3-formamide] | < 10 | > 80 |  |
| COc1cc(O[C@H]2C(C)(C)[C@H](N3Cc4nc(C#C[C@H]5C[C@H](N6CCN(c7cc8c(cc7F)C(=O)N(C7CCC(=O)NC7=O)C8=O)CC6)C5)ccc4C3=O)C2(C)C)ccc1C#N (stereo partly drawn) [Compound 393] |  |  | DC50 [4]: 10 to 100 nM; Dmax [5]: > 80% |
| CC1(C)[C@H](Oc2ccc(C#N)c(Cl)c2)C(C)(C)[C@H]1N1Cc2nc(C#CC3CCC(N4CCC5(CCN(c6ccc7c(c6)C(=O)N(C6CCC(=O)NC6=O)C7=O)C5)C4)CC3)ccc2C1=O (stereo partly drawn) [Compound 364, 2-Chloro-4-((1r,3r)-3-(2-((4-(7-(2-(2,6-dioxopiperidin-3-yl)-1,3-dioxoisoindolin-5-yl)-2,7-Diazaspiro[4.4]nonan-2-yl)cyclohexyl)ethynyl)-5-oxo-5,7-dihydro-6H-pyrrolo[3,4-b]pyridin-6-yl)-2,2,4,4-tetramethylcyclobutoxy) benzonitrile] | < 10 | > 80 |  |
| N#Cc1ccc(O[C@H]2CC[C@H](NC(=O)c3ccc(N4CCC5(CC4)CC(N4CCN(c6cc7c(cc6F)C(=O)N(C6CCC(=O)NC6=O)C7=O)CC4)C5)nn3)CC2)cc1Cl (stereo partly drawn) [Compound 269] | < 10 | > 80 |  |
| CCOc1cc(O[C@H]2C(C)(C)[C@H](N3Cc4nc(C#C[C@H]5CC[C@H](N6CCN(c7ccc8c(c7)C(=O)N(C7CCC(=O)NC7=O)C8=O)CC6)CC5)ccc4C3=O)C2(C)C)ccc1C#N (stereo partly drawn) [Compound 430] |  |  | DC50 [4]: 100 to 300 nM; Dmax [5]: 60 to 80% |
| N#Cc1ccc(O[C@H]2CC[C@H](NC(=O)c3ccc(N4CC5(CCN(C6CCN(c7cc8c(cc7F)C(=O)N(C7CCC(=O)NC7=O)C8=O)CC6)C5)C4)nn3)CC2)cc1Cl (stereo partly drawn) [Compound 81, N-((1r,4r)-4-(3-chloro-4-cyanophenoxy)cyclohexyl)-6-(6-(1-(2-(2,6-dioxopiperidin-3-yl)-6-fluoro-1,3-dioxoisoindolin-5-yl)piperidine-4-yl)-2,6-diazaspiro[3.4]octan-2-yl)pyridazine-3-formamide] | < 10 |  | Dmax: > 80% |
| N#Cc1ccc(OC2CCC(NC(=O)c3ccc(N4CCC(CN5CCC6(CC5)CN(c5ccc7c(c5)CN(C5CCC(=O)NC5=O)C7=O)C6)CC4)nn3)CC2)cc1Cl (stereo not drawn) [Compound 196, N-((1r,4r)-4-(3-chloro-4-cyanophenoxy)cyclohexyl)-6-(4-((2-(2-(2,6-dioxopiperidin-3-yl)-1-oxoisoindolin-5-yl)-2,7-diazaspiro[3.5]nonan-7-yl)methyl)piperidin-1-yl)pyridazine-3-formamide] | < 10 |  | Dmax (%) [1]: ++++ (>80%) |
| N#Cc1ccc(O[C@H]2CC[C@H](NC(=O)c3ccc(N4CCC5(CC4)CN(CC4CCN(c6cc7c(cc6F)C(=O)N(C6CCC(=O)NC6=O)C7=O)CC4)C5)nn3)CC2)cc1Cl (stereo partly drawn) [Compound 75] | < 10 | > 80 |  |
| CC1(C)[C@H](Oc2ccc(C#N)c(Cl)c2)C(C)(C)[C@H]1N1Cc2nc(N3CCC(CN4CCN(c5cc6c(cc5F)C(=O)N(C5CCC(=O)NC5=O)C6)CC4)CC3)ccc2C1=O (stereo partly drawn) [Compound 206] |  |  | inhibition at 0.1 µM (percentage of degraded AR at 100 nM, VCaP cells, 16 h, ELISA, read-out: % degradation): 25 to 49% |

Second part, led by results:

| DC50 [2] [nM] | Dmax [3] [%] | SMILES | also measured |
| --- | --- | --- | --- |
| < 10 |  | N#Cc1ccc(OC2CCC(NC(=O)c3cnc(N4CCN(C5CC6(CCN(c7ccc8c(c7)C(=O)N(C7CCC(=O)NC7=O)C8=O)CC6)C5)CC4)cn3)CC2)cc1Cl (stereo not drawn) [Compound 278, N-((1r,4r)-4-(3-chloro-4-cyanophenoxy)cyclohexyl)-5-(4-(7-(2-(2,6-dioxopiperidin-3-yl)-1,3-dioxoisoindolin-5-yl)-7-azaspiro[3.5]nonan-2-yl)piperazin-1-yl)pyrazine-2-carboxamide] | Dmax (%) [1]: ++++ (>80%) |
| < 10 | > 80 | N#Cc1ccc(O[C@H]2CC[C@H](NC(=O)c3ccc(N4CCC5(CCN(CC6CCN(c7cc8c(cc7F)C(=O)N(C7CCC(=O)NC7=O)C8=O)CC6)CC5)CC4)nn3)CC2)cc1Cl (stereo partly drawn) [Compound 261] |  |
| 100 to 300 | > 80 | N#Cc1ccc(O[C@H]2CC[C@H](NC(=O)c3cnn([C@H]4CC[C@H](CN5CCC6(CC5)CN(c5cc7c(cc5F)C(=O)N(C5CCC(=O)NC5=O)C7=O)C6)CC4)n3)CC2)cc1Cl (stereo partly drawn) [Compound 117] |  |
| < 10 | > 80 | N#Cc1ccc(O[C@H]2CC[C@H](NC(=O)c3cn([C@H]4CC[C@H](CN5CCC6(CC5)CN(c5cc7c(cc5F)C(=O)N(C5CCC(=O)NC5=O)C7=O)C6)CC4)nn3)CC2)cc1Cl (stereo partly drawn) [Compound 115] |  |
| < 10 | > 80 | N#Cc1ccc(O[C@H]2CC[C@H](NC(=O)c3ccc(N4CC5(CN(C[C@@H]6[C@H]7CN(c8cc9c(cc8F)C(=O)N(C8CCC(=O)NC8=O)C9=O)C[C@@H]67)C5)C4)nn3)CC2)cc1Cl (stereo partly drawn) [Compound 92] |  |
| < 10 | > 80 | CC1(C)[C@H](Oc2ccc(C#N)c(Cl)c2)C(C)(C)[C@H]1N1Cc2nc(C#C[C@H]3CC[C@H](N4CCN(c5ccc6c(c5)C(=O)N(C5CCC(=O)NC5=O)C6=O)CC4)CC3)ccc2C1=O (stereo partly drawn) [Compound 325] |  |
| < 10 |  | CC1(C)[C@H](Oc2ccc(C#N)c(Cl)c2)C(C)(C)[C@H]1N1Cc2nc(C#CC3CCC(N4CCC5(CN(c6cc7c(cc6F)C(=O)N(C6CCC(=O)NC6=O)C7=O)C5)C4)CC3)ccc2C1=O (stereo partly drawn) [Compound 375] |  |
| < 10 | > 80 | N#Cc1ccc(O[C@H]2CC[C@H](NC(=O)c3cnc(N4CCC(N5CC6(CCN(c7cc8c(cc7F)C(=O)N(C7CCC(=O)NC7=O)C8=O)CC6)C5)CC4)cn3)CC2)cc1C(F)(F)F (stereo partly drawn) [Compound 236, N-((1r,4r)-4-(4-cyano-3-(trifluoromethyl)phenoxy)cyclohexyl)-5-(4-(7-(2-(2,6-dioxopiperidin-3-yl)-6-fluoro-1,3-dioxoisoindolin-5-yl)-2,7-diazaspiro[3.5]nonan-2-yl)piperidin-1-yl)pyrazine-2-carboxamide] |  |
